One experiment addresses β adrenoceptors. As to the kind of experiment: radioligand binding studies in lung membrane (Table A, binding affinity). An excerpt: The results are summarised in Table A. Generally, the activity is better for the trans than the cis isomer.
The subject of experiment [1] is acetylcholine induced bronchoconstriction. As to the kind of experiment: inhibition of acetylcholine induced bronchoconstriction, Konzett and Rossler method (Table B). The following applies: IV; for inhibition in vivo at 0.13 µmol/kg / inhibition in vivo at 0.42 µmol/kg / inhibition in vivo at 1.53 µmol/kg / inhibition in vivo at 3.6 µmol/kg / inhibition in vivo at 0.46 µmol/kg / inhibition in vivo at 1.5 µmol/kg / inhibition in vivo at 1.48 µmol/kg / inhibition in vivo at 0.47 µmol/kg / inhibition in vivo at 0.48 µmol/kg: Cavia porcellus. Type of experiment: in vivo, Male Hartley Guinea Pigs. Here is the method: Male Hartley Guinea Pigs (450-500 g) were anaesthetised with ethyl carbamate and prepared for recording bronchoconstriction according to Konzett and Rossler method (Naunym Schmiedebergers Arch. Exp. Path. Pharmakol (1940) 195, 71). To abolish spontaneous respiration, an injection IV of vecuronium bromide (2 mg/kg) was made. Bronchoconstriction was induced by IV injection of Acetylcholine and the animals received one dose of β agonist compound (IV) 5 minutes later.

Where [2] appears, read: 5 min, 0.13 μmol/kg, 5 mn, read-out: bronchoconstriction protection, score 5 mn.
Setting [3] is: 0.25 h, 0.13 μmol/kg, 15 mn, read-out: bronchoconstriction protection, score 15 mn.
Where [4] appears, read: 0.5 h, 0.13 μmol/kg, 30 mn, read-out: bronchoconstriction protection, score 30 mn.
The mark [5] stands for this setting: 5 min, 0.46 μmol/kg, 5 mn, read-out: bronchoconstriction protection, score 5 mn.
Where [6] appears, read: 0.25 h, 0.46 μmol/kg, 15 mn, read-out: bronchoconstriction protection, score 15 mn.
The mark [7] stands for this setting: 0.5 h, 0.46 μmol/kg, 30 mn, read-out: bronchoconstriction protection, score 30 mn.

SMILES strings stand for the structures. Where two headings read alike, the source gives them in different places. Where only a bound is given, the exact number is not on record here.

A word on the Ki: it is a measure of affinity in units of concentration, obtained from inhibition or displacement. Lower therefore signals tighter binding. Take `COc1cc([C@H]2CC[C@H](CNCC(O)c3ccc(O)c(CO)c3)O2)cc(OC)c1OC` (relative stereo) [Example 2 (trans), 2-(3',4',5'-trimethoxyphenyl)-5-[N-[β-(3'-hydroxymethyl-4'-hydroxy-phenyl)-β-hydroxy-ethyl]-aminomethyl]-tetrahydrofuran]: the inhibition constant (Ki) at β adrenoceptors was found to be 80 nM. The “bronchoconstriction protection, duration of action” value (“bronchoconstriction protection” for short) was 30 mn in experiment [1] (0.13 μmol/kg) and > 50 mn in experiment [1] (0.42 μmol/kg). For the same compound, the inhibition in vivo at 0.13 µmol/kg is > 75% in experiment [1] (setting [2]), 50 to 75% in experiment [1] (setting [3]) and 20 to 50% in experiment [1] (setting [4]). Besides, the inhibition in vivo at 0.42 µmol/kg in experiment [1] (5 min, 0.42 μmol/kg, 5 mn, read-out: bronchoconstriction protection, score 5 mn) is > 75%; in experiment [1] (0.25 h, 0.42 μmol/kg, 15 mn, read-out: bronchoconstriction protection, score 15 mn), > 75%; in experiment [1] (0.5 h, 0.42 μmol/kg, 30 mn, read-out: bronchoconstriction protection, score 30 mn), > 75%.

At β adrenoceptors, `COc1ccc([C@H]2CC[C@H](CNCC(O)c3ccc(O)c(CO)c3)O2)c(OC)c1OC` (relative stereo) [Example 3 (trans), 2-(2',3',4'-trimethoxyphenyl)-5-[N-[β-(3'-hydroxymethyl-4'-hydroxy-phenyl)-β-hydroxy-ethyl]-aminomethyl]-tetrahydrofuran] displayed an inhibition constant Ki of 1600 nM. Besides, the “bronchoconstriction protection” value in experiment [1] (1.53 μmol/kg) turned out to be 5 mn; in experiment [1] (3.6 μmol/kg), 30 mn. Also, the inhibition in vivo at 1.53 µmol/kg in experiment [1] (5 min, 1.53 μmol/kg, 5 mn, read-out: bronchoconstriction protection, score 5 mn) is 20 to 50%; in experiment [1] (0.25 h, 1.53 μmol/kg, 15 mn, read-out: bronchoconstriction protection, score 15 mn) it was < 20%; in experiment [1] (0.5 h, 1.53 μmol/kg, 30 mn, read-out: bronchoconstriction protection, score 30 mn), < 20%. Moreover, the inhibition in vivo at 3.6 µmol/kg in experiment [1] (5 min, 3.6 μmol/kg, 5 mn, read-out: bronchoconstriction protection, score 5 mn) lay within 50 to 75%; in experiment [1] (0.25 h, 3.6 μmol/kg, 15 mn, read-out: bronchoconstriction protection, score 15 mn) it was 20 to 50%; in experiment [1] (0.5 h, 3.6 μmol/kg, 30 mn, read-out: bronchoconstriction protection, score 30 mn), 20 to 50%.

Compound `OCc1cc(C(O)CNC[C@@H]2CC[C@H](c3ccccc3Cl)O2)ccc1O` (relative stereo) [Example 4 (cis), 2-(2'-chlorophenyl)-5-[N-[β-(3'-hydroxymethyl-4'-hydroxy-phenyl)-β-hydroxy-ethyl]-aminomethyl]-tetrahydrofuran] came in with an inhibitory constant (Ki) on β adrenoceptors of 347 nM. In addition, the “bronchoconstriction protection” value is given as 10 mn in experiment [1] (0.46 μmol/kg) and < 40 mn in experiment [1] (1.5 μmol/kg). Further, the inhibition in vivo at 0.46 µmol/kg was 50 to 75% in experiment [1] (setting [5]), < 20% in experiment [1] (setting [6]) and < 20% in experiment [1] (setting [7]). Moreover, the inhibition in vivo at 1.5 µmol/kg in experiment [1] (5 min, 1.5 μmol/kg, 5 mn, read-out: bronchoconstriction protection, score 5 mn) lay in the range of 50 to 75%; in experiment [1] (0.25 h, 1.5 μmol/kg, 15 mn, read-out: bronchoconstriction protection, score 15 mn) it was 50 to 75%; in experiment [1] (0.5 h, 1.5 μmol/kg, 30 mn, read-out: bronchoconstriction protection, score 30 mn) it was 20 to 50%.

`OCc1cc(C(O)CNC[C@H]2CC[C@H](c3ccccc3Cl)O2)ccc1O` (relative stereo) [Example 4 (trans), 2-(2'-chlorophenyl)-5-[N-[β-(3'-hydroxymethyl-4'-hydroxy-phenyl)-β-hydroxy-ethyl]-aminomethyl]-tetrahydrofuran] showed a Ki on β adrenoceptors of 400 nM. The “bronchoconstriction protection” value in experiment [1] (0.46 μmol/kg) is 10 mn; in experiment [1] (1.48 μmol/kg) it was > 25 mn. Besides, the values for the inhibition in vivo at 0.46 µmol/kg in experiment [1] (setting [5]), in experiment [1] (setting [6]) and in experiment [1] (setting [7]) were > 75%, < 20% and < 20%, respectively. Besides, the inhibition in vivo at 1.48 µmol/kg in experiment [1] (5 min, 1.48 μmol/kg, 5 mn, read-out: bronchoconstriction protection, score 5 mn) is > 75%; in experiment [1] (0.25 h, 1.48 μmol/kg, 15 mn, read-out: bronchoconstriction protection, score 15 mn), 50 to 75%; in experiment [1] (0.5 h, 1.48 μmol/kg, 30 mn, read-out: bronchoconstriction protection, score 30 mn) it was 50 to 75%.

As to `OCc1cc(C(O)CNC[C@@H]2CC[C@H](c3cccc(Cl)c3)O2)ccc1O` (relative stereo) [Example 5 (cis), 2-(3'-chlorophenyl)-5-[N-[β-(3'-hydroxymethyl-4'-hydroxy-phenyl)-β-hydroxy-ethyl]-aminomethyl]-tetrahydrofuran], the Ki on β adrenoceptors turned out to be 760 nM. The “bronchoconstriction protection” value in experiment [1] (0.47 μmol/kg) is < 10 mn. In addition, the inhibition in vivo at 0.47 µmol/kg in experiment [1] (5 min, 0.47 μmol/kg, 5 mn, read-out: bronchoconstriction protection, score 5 mn) was 20 to 50%; in experiment [1] (0.25 h, 0.47 μmol/kg, 15 mn, read-out: bronchoconstriction protection, score 15 mn), < 20%; in experiment [1] (0.5 h, 0.47 μmol/kg, 30 mn, read-out: bronchoconstriction protection, score 30 mn), < 20%.

`OCc1cc(C(O)CNC[C@H]2CC[C@H](c3cccc(Cl)c3)O2)ccc1O` (relative stereo) [Example 5 (trans), 2-(3'-chlorophenyl)-5-[N-[β-(3'-hydroxymethyl-4'-hydroxy-phenyl)-β-hydroxy-ethyl]-aminomethyl]-tetrahydrofuran] showed a Ki on β adrenoceptors of 750 nM. For the same compound, the “bronchoconstriction protection” value in experiment [1] (0.46 μmol/kg) was > 20 mn. The inhibition in vivo at 0.46 µmol/kg lay within 50 to 75% in experiment [1] (setting [5]), 20 to 50% in experiment [1] (setting [6]) and 20 to 50% in experiment [1] (setting [7]).

On β adrenoceptors, `COc1ccc([C@H]2CC[C@@H](CNCC(O)c3ccc(O)c(CO)c3)O2)cc1OC` (relative stereo) [Example 8 (cis), 2-(3',4'-dimethoxyphenyl)-5-[N-[β-(3'-hydroxymethyl-4'-hydroxy-phenyl)-β-hydroxyethyl]-aminomethyl]-tetrahydrofuran] came in with a Ki of 1100 nM. In addition, the “bronchoconstriction protection” value in experiment [1] (0.48 μmol/kg) was < 30 mn. In addition, the inhibition in vivo at 0.48 µmol/kg in experiment [1] (5 min, 0.48 μmol/kg, 5 mn, read-out: bronchoconstriction protection, score 5 mn) was 50 to 75%; in experiment [1] (0.25 h, 0.48 μmol/kg, 15 mn, read-out: bronchoconstriction protection, score 15 mn), 20 to 50%; in experiment [1] (0.5 h, 0.48 μmol/kg, 30 mn, read-out: bronchoconstriction protection, score 30 mn), < 20%.

In turn, `COc1ccc([C@H]2CC[C@H](CNCC(O)c3ccc(O)c(CO)c3)O2)cc1OC` (relative stereo) [Example 8 (trans), 2-(3',4'-dimethoxyphenyl)-5-[N-[β-(3'-hydroxymethyl-4'-hydroxy-phenyl)-β-hydroxyethyl]-aminomethyl]-tetrahydrofuran] gave an inhibitory constant (Ki) on β adrenoceptors of 1050 nM. For the same compound, the results for the “bronchoconstriction protection” value in experiment [1] (0.13 μmol/kg) and in experiment [1] (0.46 μmol/kg) were 30 mn and > 30 mn, respectively. Also, the inhibition in vivo at 0.13 µmol/kg lay in the range of 50 to 75% in experiment [1] (setting [2]), 20 to 50% in experiment [1] (setting [3]) and 20 to 50% in experiment [1] (setting [4]). In addition, the inhibition in vivo at 0.46 µmol/kg in experiment [1] (setting [5]) is 50 to 75%; in experiment [1] (setting [6]) it was 50 to 75%; in experiment [1] (setting [7]), 20 to 50%.

In turn, `COc1ccc([C@H]2CC[C@@H](CNCC(O)c3ccc(O)c(CO)c3)O2)cc1` (relative stereo) [Example 9 (cis), 2-(4'-methoxyphenyl)-5-[N-[β-(3'-hydroxymethyl-4'-hydroxy-phenyl)-β-hydroxy-ethyl]-aminomethyl]-tetrahydrofuran] returned an inhibition constant Ki at β adrenoceptors of 810 nM. Further, the “bronchoconstriction protection” value in experiment [1] (0.46 μmol/kg) is 20 mn. Moreover, the values for the inhibition in vivo at 0.46 µmol/kg in experiment [1] (setting [5]), in experiment [1] (setting [6]) and in experiment [1] (setting [7]) were 50 to 75%, 20 to 50% and < 20%, respectively.

In the case of `COc1cc([C@H]2CC[C@@H](CCCNCC(O)c3ccc(O)c(CO)c3)O2)cc(OC)c1OC` (relative stereo) [Example 15 (cis), 2-(3',4',5'-trimethoxyphenyl)-5-[-N-[β-(3'-hydroxymethyl-4'-hydroxy-phenyl)-β-hydroxy-ethyl]-aminopropyl]-tetrahydrofuran], on β adrenoceptors, the affinity corresponds to a Ki of 1900 nM.

`COc1cc(C2CCC(CNCC(O)c3ccc(O)c(CO)c3)O2)cc(OC)c1OC` (single isomer, unassigned) [Example 2 (trans) (+), 2-(3',4',5'-trimethoxyphenyl)-5-[N-[β-(3'-hydroxymethyl-4'-hydroxy-phenyl)-β-hydroxy-ethyl]-aminomethyl]-tetrahydrofuran] displayed an inhibition constant (Ki) at β adrenoceptors of 50 nM.

Turning to `COc1cc(C2CCC(CNCC(O)c3ccc(O)c(CO)c3)O2)cc(OC)c1OC` (single isomer, unassigned) [Example 2 (trans) (-), 2-(3',4',5'-trimethoxyphenyl)-5-[N-[β-(3'-hydroxymethyl-4'-hydroxy-phenyl)-β-hydroxy-ethyl]-aminomethyl]-tetrahydrofuran], the Ki on β adrenoceptors came out at 350 nM.

On β adrenoceptors, `CCCC1CCC(CNCC(O)c2ccc(O)c(CO)c2)O1` (stereo not drawn) [Example 11, 2-propyl-5-[N-[β-(3'-hydroxymethyl-4'-hydroxy-phenyl)-β-hydroxy-ethyl]-aminomethyl]-tetrahydrofuran] came in with a Ki of 520 nM.

Values taken from patent US5447942A, “N-derivatives of (phenylethyl-β-ol) amine, a process for their preparation and pharamaceutical compositions containing the same” (Societe de Conseils de Recherches et d'Applications …, priority 1992, dated 1995).
